Source: US7138421B2, “Anti-androgenic pyrrolidines with tumor-inhibiting action” (Schring Aktiengesellschaft, priority 2003, dated 2006)
pIC50: −log10 of the molar value. Read-outs that look alike come from different tables or passages of the source.

Legend:
LNCaP cells = assay: Inhibition of the proliferation of LNCaP cells (crystal violet assay); assay type: cell-based, human; settings: for inhibition at 1 µM / pIC50: Homo sapiens, LNCaP; for pIC50: 7 to 8 days; for antiproliferative action (in words): LNCaP cells
Experimental: For the proliferation assay, 6000 LNCaP cells/well (Horoszewicz et al. Cancer Res. 1983, 43, 1809–1817) in a microtiter plate (96-well) in 50 μl of RPMI1640 medium are grown with 5% CCS and cultivated as in Model 1. After 24 hours, the cells receive 50 μl of 2×-concentrated test substance, diluted in culture medium. The solvent concentration is 0.5% DMSO. After 4 days, the cells receive another 100 μl of 1×-concentrated test substance, diluted in culture medium. After 7 to 8 days, the proliferation rate of the cells is determined by means of crystal violet assay (Gillies et al. Anal. Biochem. 1986, 159, 109–113). To determine the antagonism, the substance treatment is performed in the presence of […] of R1881 (1:1000 dilution of ethanolic solution). Control cells receive only 0.5% DMSO. For the agonism, the cells are treated only with test substance (without R1881).

seminal vesicles = assay: Anti-androgenic action on testosterone-stimulated growth of the seminal vesicles of castrated mice; assay type: in vivo, mouse; settings: 7 days, castrated mice with testosterone propionate
Experimental: The function and the size of accessory reproductive glands (prostate and seminal vesicles) depend on androgens. In castrated animals, a growth of these organs is induced by the administration of androgen. Simultaneous treatment with anti-androgens inhibits this growth in a dose-dependent manner. For the examination of test substances, the mice were castrated. On the same day, treatment with testosterone propionate (0.03 mg/mouse) and the test substances (1× daily 10 or 30 mg/kg p.o. in benzyl benzoate-castor oil or ethanol/peanut oil (10:90)) was formulated. The treatment was carried out over 7 days and at the end of the test, the weights of the seminal vesicles and prostate were determined. The inhibition of the seminal vesicle growth, in percent, was calculated in reference to the control groups (with and without testosterone). As a reference substance, cyproterone acetate (30 mg/kg s.c. and p.o.) was used.

androgen receptor = target: T1, androgen receptor (Homo sapiens, UniProt P10275, T878A); assay type: cell-based
T1 construct: Destabilization of AR in LNCaP Cells by Test Substances; endogenous in cells; host or cells: LNCaP (human prostate cell line)
T1 sequence (P10275 1-920 T878A): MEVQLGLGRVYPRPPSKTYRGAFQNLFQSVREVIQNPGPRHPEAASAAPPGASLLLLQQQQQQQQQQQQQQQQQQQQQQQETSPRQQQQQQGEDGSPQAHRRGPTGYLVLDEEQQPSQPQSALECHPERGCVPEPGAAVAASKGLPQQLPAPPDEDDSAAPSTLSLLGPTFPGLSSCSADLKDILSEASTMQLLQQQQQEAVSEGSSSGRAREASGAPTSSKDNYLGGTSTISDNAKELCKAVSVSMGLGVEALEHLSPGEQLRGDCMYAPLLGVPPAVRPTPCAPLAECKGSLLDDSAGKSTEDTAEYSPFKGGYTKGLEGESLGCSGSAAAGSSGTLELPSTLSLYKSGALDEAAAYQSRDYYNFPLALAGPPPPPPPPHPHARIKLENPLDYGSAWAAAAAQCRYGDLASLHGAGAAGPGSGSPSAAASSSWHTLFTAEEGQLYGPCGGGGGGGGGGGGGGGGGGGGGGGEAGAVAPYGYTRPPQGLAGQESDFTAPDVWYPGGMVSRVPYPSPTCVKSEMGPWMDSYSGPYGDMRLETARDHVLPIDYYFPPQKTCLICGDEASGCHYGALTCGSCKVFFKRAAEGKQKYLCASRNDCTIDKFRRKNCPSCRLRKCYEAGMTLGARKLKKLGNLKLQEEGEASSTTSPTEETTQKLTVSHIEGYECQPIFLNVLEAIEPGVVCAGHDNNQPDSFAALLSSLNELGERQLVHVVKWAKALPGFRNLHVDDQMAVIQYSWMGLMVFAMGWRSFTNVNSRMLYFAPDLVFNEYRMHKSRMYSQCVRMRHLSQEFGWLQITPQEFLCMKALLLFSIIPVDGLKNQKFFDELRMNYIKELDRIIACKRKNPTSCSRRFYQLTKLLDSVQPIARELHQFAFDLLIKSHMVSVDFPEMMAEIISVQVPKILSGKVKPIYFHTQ

[1] = 1 μM test substance, compared to cell growth in the presence of 0.1 nmol of R1881, read-out: % Inhibition at 1 μM
[2] = read-out: IC50 inhibition of the proliferation of LNCaP cells, in the presence of 0.1 nmol of R1881
[3] = LNCaP cells, 48 h, 1 μM, % of DMSO control
[4] = in the presence of 0.1 nmol of R1881, read-out: IC50 inhibition of the proliferation of LNCaP cells
[5] = LNCaP cells, 48 h, 10 μM, % of DMSO control

Compound | inhibition at 1 µM (LNCaP cells; [1]) | pIC50 (LNCaP cells; [2]) | AR Content at 1 μM (androgen receptor; [3]) | pIC50 (LNCaP cells; [4]) | other results
CC(O)(CS(=O)(=O)c1ccc(F)cc1)C(=O)Nc1ccc(C#N)c(C(F)(F)F)c1 (centres unmarked) [Bicalutamide, N-[4-Cyano-3-(trifluoromethyl)phenyl]-3-[(4-fluorophenyl)sulfonyl]-2-hydroxy-2-methylpropanamide, reference compound] | 85% |  |  |  | % Inhibition of MSB Growth (seminal vesicles; 30 mg/kg p.o., 1× daily): 82%; % Inhibition of MSB Growth (seminal vesicles; 30 mg/kg s.c.): 86%
CC(=O)O[C@]1(C(C)=O)CC[C@H]2[C@@H]3C=C(Cl)C4=CC(=O)[C@@H]5C[C@@H]5[C@]4(C)[C@H]3CC[C@@]21C [CPA, 17-(acetyloxy)-6-chloro-1β,2β-dihydro-3′H -cyclopropa[1,2]pregna-1,4,6-triene-3,20-dione, reference compound] |  |  |  |  | % Inhibition of MSB Growth (seminal vesicles; 30 mg/kg s.c.): 85%
CC1(C)C(=O)N(c2ccc(C#N)c(C(F)(F)F)c2)C(=S)N1CCCCCCCN1CCC[C@H]1CO [Example 9, 4-[3-[7-[(2S)-2-(Hydroxymethyl)pyrrolidin-1-yl]heptyl]-4,4-dimethyl-5-oxo-2-thioxoimidazolidin-1-yl]-2-(trifluoromethyl)benzonitrile] | 92% | 7.59 | 63% |  | 
C[C@@H]1CC[C@H](C)N1CCCCCCCCN1C(=S)N(c2ccc(C#N)c(C(F)(F)F)c2)C(=O)C1(C)C [Example 37, 4-[3-[8-[(2R,5S)-rel-2,5-Dimethylpyrrolidin-1-yl]octyl]-4,4-dimethyl-5-oxo-2-thioxoimidazolidin-1-yl]-2-(trifluoromethyl)benzonitrile] | 99% | 7.96 | 57% |  | 
CC(C)(O)[C@@H]1CCCN1CCCCCCCCN1C(=S)N(c2ccc(C#N)c(C(F)(F)F)c2)C(=O)C1(C)C [Example 40, 4-[3-[8-[(2S)-2-(1-Hydroxy-1-methylethyl)pyrrolidin-1-yl]octyl]-4,4-dimethyl-5-oxo-2-thioxoimidazolidin-1-yl]-2-(trifluoromethyl)benzonitrile] | 118% | 7.96 | 40% |  | 
CC(C)(O)[C@H]1CCCN1CCCCCCCCN1C(=S)N(c2ccc(C#N)c(C(F)(F)F)c2)C(=O)C1(C)C [Example 44, 4-[3-[8-[(2R)-2-(1-Hydroxy-1-methylethyl)pyrrolidin-1-yl]octyl]-4,4-dimethyl-5-oxo-2-thioxoimidazolidin-1-yl]-2-(trifluoromethyl)benzonitrile] | 115% |  |  | 7.96 | 
CCC(O)(CC)[C@@H]1CCCN1CCCCCCCCN1C(=S)N(c2ccc(C#N)c(C(F)(F)F)c2)C(=O)C1(C)C [Example 47, 4-[3-[8-[(2S)-2-(1-Hydroxy-1-ethylpropyl)pyrrolidin-1-yl]octyl]-4,4-dimethyl-5-oxo-2-thioxoimidazolidin-1-yl]-2-(trifluoromethyl)benzonitrile] | 99% |  |  | 7.57 | 
CC1(C)C(=O)N(c2ccc(C#N)c(C(F)(F)F)c2)C(=S)N1CCCCCCN1CC[C@H](C(N)=O)C1 [Example 49, (S)-1-[6-[3-[4-Cyano-3-(trifluoromethyl)phenyl]-5,5-dimethyl-4-oxo-2-thioxoimidazolidin-1-yl]hexyl]pyrrolidine-4-carboxamide] | 110% |  |  | 7.49 | 
CC1(C)C(=O)N(c2ccc(C#N)c(C(F)(F)F)c2)C(=S)N1CCCCCCCN1CC[C@H](C(N)=O)C1 [Example 50, (S)-1-[7-[3-[4-Cyano-3-(trifluoromethyl)phenyl]-5,5-dimethyl-4-oxo-2-thioxoimidazolidin-1-yl]heptyl]pyrrolidine-4-carboxamide] | 110% |  |  | 7.82 | 
CC1(C)C(=O)N(c2ccc(C#N)c(C(F)(F)F)c2)C(=S)N1CCCCCCCCN1CC[C@H](C(N)=O)C1 [Example 51, (S)-1-[8-[3-[4-Cyano-3-(trifluoromethyl)phenyl]-5,5-dimethyl-4-oxo-2-thioxoimidazolidin-1-yl]octyl]pyrrolidine-4-carboxamide] | 97% |  |  | 7.70 | 
CC1(C)C(=O)N(c2ccc(C#N)c(C(F)(F)F)c2)C(=S)N1CCCCCCN1CC[C@@H](C(N)=O)C1 [Example 52, (R)-1-[6-[3-[4-Cyano-3-(trifluoromethyl)phenyl]-5,5-dimethyl-4-oxo-2-thioxoimidazolidin-1-yl]hexyl]pyrrolidine-4-carboxamide] | 100% | 7.92 | 74% |  | AR Content at 10 μM (androgen receptor; [5]): 36%
CC1(C)C(=O)N(c2ccc(C#N)c(C(F)(F)F)c2)C(=S)N1CCCCCCCN1CC[C@@H](C(N)=O)C1 [Example 53, (R)-1-[7-[3-[4-Cyano-3-(trifluoromethyl)phenyl]-5,5-dimethyl-4-oxo-2-thioxoimidazolidin-1-yl]heptyl]pyrrolidine-4-carboxamide] | 97% |  |  | 7.31 | 
CC1(C)C(=O)N(c2ccc(C#N)c(C(F)(F)F)c2)C(=S)N1CCCCCCCCN1CC[C@@H](C(N)=O)C1 [Example 54, (R)-1-[8-[3-[4-Cyano-3-(trifluoromethyl)phenyl]-5,5-dimethyl-4-oxo-2-thioxoimidazolidin-1-yl]octyl]pyrrolidine-4-carboxamide] | 93% |  |  | 7.19 | 
CC1(C)C[C@@H](CN2CCCC2)N(CCCCCCCN2CCN(c3ccc(C#N)c(C(F)(F)F)c3)C2=S)C1=O [Example 56, 4-[3-[7-[(2S)-4,4-Dimethyl-5-oxo-2-(pyrrolidin-1-ylmethyl)pyrrolidin-1-yl]heptyl]-2-thioxoimidazolidin-1-yl]-2-(trifluoromethyl)benzonitrile] |  |  | 24% |  | 
CC1(C)C(=O)N(c2ccc(C#N)c(C(F)(F)F)c2)C(=S)N1CCO [Example 71 USRe 35956, 4-[3-(2-Hydroxyethyl)-4,4-dimethyl-5-oxo-2-thioxoimidazolidin-1-yl]-2-(trifluoromethyl)benzonitrile, reference compound] | 9% | < 5.00 | 164% |  | antiproliferative action (in words) (LNCaP cells): little or no antiproliferative action; AR Content at 10 μM (androgen receptor; [5]): 191%
CC1(C)C(=O)N(c2ccc(C#N)c(C(F)(F)F)c2)C(=S)N1CCCCO [Example 77 USRe 35956, 4-[3-(4-Hydroxybutyl)-4,4-dimethyl-5-oxo-2-thioxoimidazolidin-1-yl]-2-(trifluoromethyl)benzonitrile, reference compound] |  | < 5.00 |  |  | inhibition at 1 µM (LNCaP cells; read-out: % Inhibition at 1 μM, 1 μM test substance, compared to cell growth in the presence of 0.1 nmol of R1881): 34%; antiproliferative action (in words) (LNCaP cells): little or no antiproliferative action; AR Content at 1 μM (androgen receptor): 230%; AR Content at 10 μM (androgen receptor): 180%
C[C@]1(O)CC[C@H]2[C@@H]3CCC4=CC(=O)CCC4=C3C=C[C@@]21C [Example R1881, 17β-hydroxy-17α-methylestra-4,9,11-trien-3-one, reference compound] |  |  |  |  | influence on AR content (in words) (androgen receptor; LNCaP cells): stabilizes the AR protein; AR Content (androgen receptor; LNCaP cells, R1881 at 10 nM (printed in the 10 μM column), % of DMSO control): 250%
